Laboratory results from US20040018528A1, “Novel biomarkers of tyrosine kinase inhibitor exposure and activity in mammals” (Sugen, Inc., priority 2002, published 2004).
Several values for one entry are separate records, joined by “and”; a condition that tells them apart may be missing. Equal values may be shown once.

How the values were obtained:
Format in all cases: in vivo, human
[1] = system: VEGF/PLGF heterodimers; experiment: Hybrid ELISA for VEGF/PLGF heterodimers in patient plasma; conditions: Trial C
Description: Heterodimers of VEGF and PLGF have been reported in the scientific literature. To measure heterodimers, a hybrid ELISA assay was used, combining reagents from both the R&D Systems VEGF and PLGF ELISA kits (where VEGF antibodies are used in capture step and PLGF antibodies are used in detection step).

[2] = system: MIG; experiment: MIG plasma ELISA, Compound 1 Phase I trials; conditions: individual patients
Method: (§1) In Trials A and B, patients received Compound 1.
(§2) Data analysis was performed for each marker.

[3] = system: IP-10; experiment: IP-10 plasma ELISA, Compound 1 Phase I trials; conditions: individual patients; >500 = above highest standard
Method: as §1, §2

[4] = system: I-TAC; experiment: I-TAC plasma ELISA, Compound 1 Phase I trials; conditions: individual patients
Method: as §1, §2

[5] = system: MIG; experiment: MIG plasma ELISA, Compound 1 Phase I trials; conditions: Trial C patients, FIG. 17
[6] = system: PBMC; experiment: Affymetrix microarray expression profiling of PBMC, Compound B Trial A; conditions: PBMC day 56 vs day 1
Method: Patient samples were derived from 2 randomized, open-label, multicenter Phase III clinical trials comparing standard of care chemotherapy alone or combined with Compound B in patients with metastatic colorectal cancer. In both trials Compound B was delivered twice weekly at a dose of 145 mg/m^2 via I.V. infusion. In the first trial (designated Trial A), the standard of care chemotherapy consisted of weekly administration of 5-FU and leucovorin (Rosewell Park regimen); in the second trial (designated Trial B), the standard of care chemotherapy consisted of weekly or bi-weekly administration of 5-FU, leucovorin and Irinotecan (CPT-11). A total of 23 patient sample pairs were included in Affymetrix microarray expression profiling analysis, 2 females and 9 males in the Compound B treatment arm, and 2 females and 10 males in the control arm. The median patient age was 66 and 65 years for the Compound B treatment arm and control arm, respectively. For RT-verification experiments, samples from 12 females and 24 males from the Compound B treatment arm, and 14 females and 17 males from the control arm were used. The median age for these patients was 62 and 60 years, respectively. Clinical response criteria were defined according to RECIST guidelines.
All blood samples were collected into Vacutainer tubes containing sodium heparin. Ten 10 ml of blood was withdrawn from patients prior to receiving any treatment on day 1 and also prior to dosing at end of cycle 1 (day 56 in Trial A; day 42 in Trial B). For peripheral blood mononuclear cell (PBMC) preparations, blood samples were shipped overnight at ambient temperature to a central processing facility (Quest Diagnostics, Inc., Collegeville, Pa., USA) for PBMC isolation via Ficoll gradient method. Purified PBMCs were shipped in RNA lysis buffer (Clontech, Palo Alto, Calif., USA) to SUGEN where isolation of total RNA was performed. For Trial B, whole peripheral blood samples were directly frozen at the clinical sites and shipped on dry ice to SUGEN for RNA isolation.
Total RNA was purified from PBMC samples using Clontech Nucleospin RNA II kit reagents (Clontech, Palo Alto, Calif.) and from whole blood samples using MRC TRI Reagent BD (Molecular Research Center, Cincinnati, Ohio, USA), an adaptation of the Chomczynski single step method, according to the manufacturer's instructions. All sample preparations included a treatment with RNAse-free DNAse. RNA yields were measured by UV absorbance and RNA quality was assessed by agarose gel electrophoresis with ethidium bromide staining for visualization of ribosomal RNA band integrity.
In these experiments, equal amounts of starting material were used for pre- and post-treatment samples from each donor (typically 2 μg). Briefly, the protocol was as follows: double-stranded cDNA was synthesized from total RNA (2 μg), with Invitrogen Life Technologies SuperScript Choice system reagents (Invitrogen, Carlsbad, Calif.). The T7-(dT)24 oligomer was used for priming first-strand cDNA synthesis. Double-stranded cDNA product was purified via phenol-chloroform extraction, then used as template in first round of in vitro transcription (IVT) of cRNA. […] The cRNA product was then purified with Qiagen spin column clean-up protocol and used as template in second round of cDNA synthesis. This second round of synthesis was similar to the first round except that random hexamers were used in priming of first-strand synthesis, with T7-(dT)24 oligomer priming the second-strand. Purification of the cDNA was as in the first round. The second round of IVT of cRNA was as in the first round but with biotinylated ribonucleotides rather than non-biotinylated ribonucleotides. Purified cRNA was quantitated, chemically fragmented according to Affymetrix protocol, and then hybridized overnight on Human Genome U95A Arrays (which contain probe sets for the detection of approximately 12,600 transcripts). […]

[7] = system: PBMC and whole blood RNA; experiment: SYBR Green quantitative RT-PCR of PBMC / whole blood RNA, Compound B Trials A and B; conditions: end of one treatment cycle relative to baseline, two Phase III trials
Method: Primers were designed with Primer Express 1.5 software (Applied Biosystems). In all cases, primers were designed to bind within the sequence that was used in Affymetrix probe set designs (target sequence information available on Affymterix NetAffx website). Total RNA samples (1 μg) were reverse transcribed to yield first-strand cDNA using the Applied Biosystems Reverse Transcription Reagents protocol (Applied Biosystems, Foster City, Calif.). The reverse transcription reactions were then diluted 1:5 in distilled H2O. […] For individual reactions, 10 μl of each sample were combined with 15 μl of SYBR Green PCR Master Mix (Applied Biosystems) containing the appropriate primer pair at 350 nM. Data was extracted and amplification plots generated with ABI SDS software. […]
The relative expression data for a select subset of potential biomarkers were tested for differences between the Compound B (treatment) and the standard of care (control) arms. […] Results from three different cross-validations were evaluated to select the best set of predictable biomarkers: (1) jackknife method (dropping one case at a time); (2) randomly splitting the pooled data into two halves, prediction (for building model) and validation (for testing model); and (3) using the first trial as prediction and the later trial as validation sets, respectively. […]

[8] = system: PAI-1; experiment: PAI-1 plasma levels in Compound B trial patients; conditions: after 56 days of treatment
[9] = system: PAI-1; experiment: ELISA of PAI-1 in plasma of patients given Compound A; conditions: cancer patients; 24 hours after first dose vs before; dosed twice over 24 hours
Method: (§3) (Minneapolis, Minn.). Human plasminogen activator inhibitor-1 (PAI-1) and human tissue factor (TF) ELISA kits were obtained from American Diagnostica, Inc. (Greenwich, Conn.). All ELISAs were performed on plasma samples according to the manufacturers' instructions.

[10] = system: VEGF; experiment: ELISA of VEGF in plasma of patients given Compound A; conditions: cancer patients; 24 hours after first dose vs before; dosed twice over 24 hours
Method: as §3

[11] = system: TIMP-1; experiment: ELISA of TIMP-1 in plasma of patients given Compound A; conditions: cancer patients; 24 hours after first dose vs before; dosed twice over 24 hours
Method: as §3

[12] = system: RNA transcripts in patient whole blood; experiment: Affymetrix DNA array and TaqMan qRT-PCR of whole blood RNA of patients given Compound A; conditions: Affymetrix GeneChip
Method: TRI Reagent® BD—RNA, DNA, protein isolation reagent was used according to the manufacturer's protocol, Molecular Research Center, Inc. (Cincinnati, Ohio) <www.mrcgene.com>.
Images were scanned with a Hewlett-Packard GeneArray scanner.
To determine the fold change, the AD of the post-treatment sample was divided by the AD of the pre-dose samples.
All probes contained a reporter dye (FAM) and a dye quencher (MGB). QRT-PCR was performed using 20 ng of total RNA with TaqMan® One-Step RT-PCR Master Mix Reagents Kit (Applied Biosystems) following the manufacturer's protocol. […] VEGF (Genbank accession number AF022375) transcripts were amplified using forward primer […] (SEQ ID NO: 165), reverse primer […] (SEQ ID NO: 166), and probe […] (SEQ ID NO: 167) to generate an 82-bp amplicon product. Vinculin (Genbank accession number M33308) transcripts were amplified using forward primer […] (SEQ ID NO: 168), reverse primer […] (SEQ ID NO: 169), and probe […] (SEQ ID NO: 170) to generate a 124-bp amplicon product. PECAM-1 (Genbank accession number L34657) transcripts were amplified using forward primer […] (SEQ ID NO: 171), reverse primer […] (SEQ ID NO: 172), and probe […] (SEQ ID NO: 173) to generate a 56-bp amplicon product. MAPK Kinase 3 (Genbank accession number L36719) transcripts were amplified using forward primer […] (SEQ ID NO: 174), reverse primer […] (SEQ ID NO: 175), and probe […] (SEQ ID NO: 176) to generate a 77-bp amplicon product. Hemoglobin, epsilon 1 (Genbank accession number AI349593) transcripts were amplified using forward primer […] (SEQ ID NO: 177), reverse primer […] (SEQ ID NO: 178), and probe […] (SEQ ID NO: 179) to generate a 66-bp amplicon product. GAPDH and 18S were ordered as pre-developed assay reagents (PDARs) from Applied Biosystems and used as endogenous controls.
Where ΔΔCt=(Cttarget−Ctcontrol)post-dose−(Cttarget−Ctcontrol)pre-dose.

[13] = patients with Increase call, Trial A, with 5-FU/leucovorin
[14] = advanced solid malignancies, 24 hours after first dose vs before

In the case of `CCN(CC)CCNC(=O)c1c(C)[nH]c(C=C2C(=O)Nc3ccc(F)cc32)c1C.O=C(O)C[C@H](O)C(=O)O` [malate salt of Compound 1, L-malate salt of 5-(5-fluoro-2-oxo-1,2-dihydroindol-3-ylidenemethyl)-2,4-dimethyl-1H-pyrrole-3-carboxylic acid(2-diethylaminoethyl)amide], the “patients tested with increase in plasma levels of VEGF/PLGF heterodimer” value [1] is reported as 3 of 3, the “MIG plasma level, day 15” value ([2]; cycle 1) is reported as 339.16 and the “MIG plasma level, end C1 dosing” value ([2]; in pg/mL (unit assumed)) is reported as 995.47 and 81.439 and 145.64 and 698.23 and 1066.2 and 344.93 and 907.09 and 314.2. The “IP-10 plasma level, end C1 dosing” value [3] was >500 (4×) and 240.31 and 384.06, the “I-TAC plasma level, day 15” value ([4]; cycle 1) was 2020.2 and the “I-TAC plasma level, end C1 dosing” value ([4]; in pg/mL (unit assumed)) was 771.04 and 701.46 and 315.69. The “chemokine MIG plasma level during treatment” value [5] was “induced”.
With `Cc1cc(C)c(/C=C2\C(=O)Nc3ccccc32)[nH]1` [Compound B, 3-(3,5-dimethyl-1H-pyrrol-2-ylmethylene)-1,3-dihdyro-indol-2-one] the “average fold change of lactoferrin transcript” value ([6]; Compound B (SU5416) arm, highest of the 13 transcripts) was 33, the “average fold change of hypothetical protein FLJ13052 transcript” value ([6]; Compound B (SU5416) arm, lowest of the 13 transcripts) was 2.6 and the “Increased in SU5416 arm: Antileukoprotease transcript” value [6, 13] was 9 of 11. The “Increased in SU5416 arm: BPI transcript” value [6, 13] was 9 of 11, the “Increased in SU5416 arm: CD24 antigen transcript” value [6, 13] was 9 of 11 and the “Increased in SU5416 arm: CEA CAM 8 transcript” value [6, 13] was 9 of 11. The “Increased in SU5416 arm: Defensin α 3 transcript” value [6, 13] was 10 of 11, the “Increased in SU5416 arm: Defensin α 4 transcript” value [6, 13] was 10 of 11 and the “Increased in SU5416 arm: Hypothetic. Protein FLJ13052 transcript” value [6, 13] was 7 of 11. For the same compound, the “Increased in SU5416 arm: Lactoferrin transcript” value [6, 13] was 11 of 11, the “Increased in SU5416 arm: Lipocalin 2 transcript” value [6, 13] was 10 of 11 and the “Increased in SU5416 arm: Liver arginase transcript” value [6, 13] was 9 of 11. For the same compound, the “Increased in SU5416 arm: MMP-9 transcript” value [6, 13] was 8 of 11, the “Increased in SU5416 arm: S100 P transcript” value [6, 13] was 9 of 11 and the “Increased in SU5416 arm: Thrombospondin 1 transcript” value [6, 13] was 9 of 11. The “number of the 13 genes showing induction in each case” value ([6]; all cases of the Compound B arm) was “at least 6”, the “expression of CD24, lactoferrin, LCN2 and MMP-9 transcripts” value [7] was “significantly induced” and the “median PAI-1 plasma level, day 56” value ([8]; patients with MR (minor response) at end of cycle 1) was 23.93 ng/mL. The “median PAI-1 plasma level, day 56” value ([8]; patients with PD (progressive disease) at end of cycle 1) was 34.8 ng/mL.
`Cc1[nH]c(/C=C2\C(=O)Nc3ccccc32)c(C)c1CCC(=O)O` [Compound A, 3-[2,4-dimethyl-5-(2-oxo-1,2-dihydro-indol-3-ylidenemethyl)-1H-pyrrol-3-yl]-propionic acid] was tested, and the “level of PAI-1 in plasma” value [9] was “increased”, the “level of VEGF in plasma” value [10] was “increased” and the “level of TIMP-1 in plasma” value [11] was “increased”. For the same compound, the “level of VEGF RNA in whole blood” value [12, 14] was “increase”, the “level of vinculin RNA in whole blood” value [12, 14] was “increase” and the “levels of 26 RNA transcripts in patient blood” value ([12]; day 28 vs day 0, dosed about 2 times per day) was “increased and/or decreased”.
